The results in this text go back to US20120129843A1, “PYRIDYL-THIAZOLYL INHIBITORS OF PRO-MATRIX METALLOPROTEINASE ACTIVATION” (priority 2010, published 2012).

The term Kd denotes the concentration at which binding is half-saturated. A high value points to weaker binding. In general, IC50 refers to the concentration that inhibits the measured activity by half. The low end stands for greater potency in that assay, the high end for weaker potency in that assay.

Test [1] deals with T1, proMMP9(20-445;ΔFnII) (SEQ ID NO:6) (Homo sapiens, UniProt P14780, DEL216-390).
T1 construct: start methionine (N); made in house; host or cells: E. coli BL21(DE3) RIL
T1 sequence (P14780 with tags, fused parts or gaps DEL216-390): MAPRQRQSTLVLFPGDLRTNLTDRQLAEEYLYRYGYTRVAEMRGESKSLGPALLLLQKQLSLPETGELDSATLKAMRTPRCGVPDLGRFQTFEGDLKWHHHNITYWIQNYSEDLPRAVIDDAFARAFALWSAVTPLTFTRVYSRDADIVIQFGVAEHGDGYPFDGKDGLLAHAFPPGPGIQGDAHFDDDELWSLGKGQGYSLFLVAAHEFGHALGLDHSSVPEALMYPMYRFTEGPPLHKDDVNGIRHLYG
Briefly: ThermoFluor binding assay with proMMP9(20-445;ΔFnII). The protocol:
The ThermoFluor® (TF) assay is a 384-well plate-based binding assay that measures thermal stability of proteins (Biomol Screen 2001, 6, 429-40; Biochemistry 2005, 44, 5258-66). The experiments were carried out using instruments available from Johnson & Johnson Pharmaceutical Research & Development, LLC. TF dye used in all experiments was […] (1,8-ANS) (Invitrogen: A-47).
Compounds were arranged in a pre-dispensed plate (Greiner Bio-one: 781280), wherein compounds were serially diluted in 100% DMSO across 11 columns within a series. Columns 12 and 24 were used as DMSO reference and contained no compound. For multiple compound concentration-response experiments, the compound aliquots ([…]) were robotically predispensed directly into black 384-well polypropylene PCR microplates (Abgene: TF-0384/k) using a Cartesian Hummingbird liquid handler (DigiLab, Holliston, Mass.). Following compound dispense, protein and dye solutions were added to achieve the final assay volume of 3 μL. The assay solutions were overlayed with 1 μL of silicone oil (Fluka, type DC 200: 85411) to prevent evaporation.
Assay plates were robotically loaded onto a thermostatically controlled PCR-type thermal block and then heated from 40 to 90° C. at a ramp-rate of 1° C./min for all experiments. Fluorescence was measured by continuous illumination with UV light (Hamamatsu LC6) supplied via fiber optics and filtered through a band-pass filter (380-400 nm; >60D cutoff). Fluorescence emission of the entire 384-well plate was detected by measuring light intensity using a CCD camera (Sensys, Roper Scientific) filtered to detect 500±25 nm, resulting in simultaneous and independent readings of all 384 wells. A single image with 20-sec exposure time was collected at each temperature, and the sum of the pixel intensity in a given area of the assay plate was recorded vs temperature and fit to standard equations to yield the Tm (J Biomol Screen 2001, 6, 429-40).
Thermodynamic parameters necessary for fitting compound binding for each proMMP were estimated by differential scanning calorimetry (DSC) and from ThermoFluor® data. The heat capacity of unfolding for each protein was estimated from the molecular weight and from ThermoFluor® dosing data.
ThermoFluor® with proMMP9(20-445;ΔFnII) (SEQ ID NO:6)
The protein sample preparations included a desalting buffer exchange step via a PD-10 gravity column (GE Healthcare). The desalting buffer exchange was performed prior to diluting the protein to the final assay concentration of 2.8 μM proMMP9(20-445;ΔFnII) (SEQ ID NO:6). The concentration of proMMP9(20-445;ΔFnII) (SEQ ID NO:6) was determined spectrophotometrically based on a calculated extinction coefficient of ε280=39880 M^−1cm^−1, a calculated molecular weight of 28.2 kDa, and calculated pI of 5.5. ThermoFluor® reference conditions were define as follows: 80 μg/mL (2.8 μM) proMMP9(20-445;ΔFnII) (SEQ ID NO:6), 50 μM 1,8-ANS, pH 7.0 Buffer (50 mM HEPES pH 7.0, 100 mM NaCl, 0.001% Tween-20, 2.5 mM MgCl2, 300 μM CaCl2). The thermodynamic parameters for proMMP9(20-445;ΔFnII) (SEQ ID NO:6) are as follows: Tm (° C.)=72 (+/−0.1), ΔUH(Tm) (cal mol^−1)=160000(+/−5000), ΔUS(Tm) (cal mol^−1 K^−1)=434, ΔUCp (cal mol^−1 K^−1)=2400.
On the technique in general: Differential scanning fluorimetry follows unfolding on heating by fluorescence.

Test [2] concerns the target T2, full-length proMMP9(1-707) (SEQ ID NO:1), activation by catalytic MMP3 (Homo sapiens, UniProt P14780, R574P).
T2 construct: made in house; host or cells: HEK293 (proMMP9, secreted); E. coli (MMP3)
Briefly: proMMP9/MMP3 P126 Activation Assay. Format: biochemical. The procedure: proMMP9/MMP3 P126 Activation Assay
The reaction volume was 50 μL. […] Reactivity of residual MMP3 towards P-126 substrate was minimal under these conditions.

Where a name gives a salt, the structure may show the parent alone.

T2 sequence (P14780 20-707 R574P): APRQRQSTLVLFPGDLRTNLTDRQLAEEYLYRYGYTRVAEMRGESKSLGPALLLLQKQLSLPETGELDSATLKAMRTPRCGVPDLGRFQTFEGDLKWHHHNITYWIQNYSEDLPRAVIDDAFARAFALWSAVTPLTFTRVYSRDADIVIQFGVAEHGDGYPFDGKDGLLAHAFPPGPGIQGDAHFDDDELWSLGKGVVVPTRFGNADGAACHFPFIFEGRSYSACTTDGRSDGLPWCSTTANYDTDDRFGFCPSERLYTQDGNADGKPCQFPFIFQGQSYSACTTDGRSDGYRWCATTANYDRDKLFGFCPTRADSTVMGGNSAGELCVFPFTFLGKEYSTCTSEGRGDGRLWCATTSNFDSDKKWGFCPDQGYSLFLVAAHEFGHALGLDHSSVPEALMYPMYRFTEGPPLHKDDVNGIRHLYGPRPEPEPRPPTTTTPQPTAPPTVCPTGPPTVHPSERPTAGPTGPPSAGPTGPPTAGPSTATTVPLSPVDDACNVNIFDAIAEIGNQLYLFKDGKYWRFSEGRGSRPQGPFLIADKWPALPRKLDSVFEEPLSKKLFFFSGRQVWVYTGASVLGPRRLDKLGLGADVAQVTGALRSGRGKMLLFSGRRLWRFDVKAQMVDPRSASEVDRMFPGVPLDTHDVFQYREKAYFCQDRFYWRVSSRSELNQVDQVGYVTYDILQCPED

Regarding `CCN1CCC(NC(=O)c2ccc(-c3csc(Nc4cc(S(N)(=O)=O)ccc4OC(C)C)n3)cn2)CC1` [Example 57, 5-[2-(2-Isopropoxy-5-sulfamoyl-phenylamino)-thiazol-4-yl]-pyridine-2-carboxylic acid (1-ethyl-piperidin-4-yl)-amide.TFA], the equilibrium dissociation constant (Kd) in test [1] stood at 110 nM. The same compound yielded a half-maximal inhibitory concentration (IC50) in test [2] of 240 nM.

In test [2], `CC(C)Oc1ccc(S(N)(=O)=O)cc1Nc1nc(-c2ccc(N3CCN(C4CC4)CC3)nc2)cs1` [Example 61, 3-((4-(6-(4-Cyclopropylpiperazin-1-yl)pyridin-3-yl)thiazol-2-yl)amino)-4-isopropoxybenzenesulfonamide.TFA] displayed a 50% inhibitory concentration (IC50) of 300 nM. In other words, the sub-micromolar range.

Consider `CC(=O)N1CCN(c2ccc(-c3csc(Nc4cc(S(N)(=O)=O)ccc4OC(C)C)n3)cn2)CC1` [Example 65, 3-((4-(6-(4-Acetylpiperazin-1-yl)pyridin-3-yl)thiazol-2-yl)amino)-4-isopropoxybenzenesulfonamide.TFA], for which, in test [1], the dissociation constant (Kd) worked out at 69 nM. The same compound came in with a 50% inhibitory concentration (IC50) in test [2] of 210 nM.

With `CC(C)Oc1ccc(S(N)(=O)=O)cc1Nc1nc(-c2ccc(N3CCN(CCC(F)(F)F)CC3)nc2)cs1` [Example 66, 4-Isopropoxy-3-((4-(6-(4-(3,3,3-trifluoropropyl)piperazin-1-yl)pyridin-3-yl)thiazol-2-yl)amino)benzenesulfonamide.TFA], the affinity in test [1], expressed as Kd, was 310 nM. The IC50 in test [2] was > 20000 nM.

With `CC1CN(c2ccc(-c3csc(Nc4cc(S(N)(=O)=O)ccc4OC(C)C)n3)cn2)CC(C)N1` (stereo not drawn) [Example 67, 3-((4-(6-(3,5-Dimethylpiperazin-1-yl)pyridin-3-yl)thiazol-2-yl)amino)-4-isopropoxybenzenesulfonamide.TFA], the Kd in test [1] is 71 nM. This compound came in with a half-maximal inhibitory concentration (IC50) in test [2] of 130 nM.

In test [1], `CC(C)Oc1ccc(S(N)(=O)=O)cc1Nc1nc(-c2ccc(N3C[C@@H](C)N[C@@H](C)C3)nc2)cs1` [Example 68, 3-((4-(6-(cis-3,5-Dimethylpiperazin-1-yl)pyridin-3-yl)thiazol-2-yl)amino)-4-isopropoxybenzenesulfonamide.TFA] gave a Kd of 71 nM. The compound further returned an IC50 in test [2] of 130 nM.

Turning to `CC(C)Oc1ccc(S(N)(=O)=O)cc1Nc1nc(-c2ccc(N3CCNC(C)(C)C3)nc2)cs1` [Example 69, 3-((4-(6-(3,3-Dimethylpiperazin-1-yl)pyridin-3-yl)thiazol-2-yl)amino)-4-isopropoxybenzenesulfonamide.TFA], the dissociation constant (Kd) in test [1] was 65 nM. This compound showed an IC50 in test [2] of 100 nM.

For `CC(C)Oc1ccc(S(N)(=O)=O)cc1Nc1nc(-c2ccc(N3CCC(O)CC3)nc2)cs1` [Example 70, 3-((4-(6-(4-Hydroxypiperidin-1-yl)pyridin-3-yl)thiazol-2-yl)amino)-4-isopropoxybenzenesulfonamide.TFA], the affinity in test [1], expressed as Kd, was 250 nM. For the same compound, 340 nM corresponded to half-maximal inhibition in test [2] (IC50).

Turning to `CC(C)Oc1ccc(S(N)(=O)=O)cc1Nc1nc(-c2ccc(N3CCN(CC4CC4)CC3)nc2)cs1` [Example 71, 3-((4-(6-(4-(Cyclopropylmethyl)piperazin-1-yl)pyridin-3-yl)thiazol-2-yl)amino)-4-isopropoxybenzenesulfonamide.TFA], binding in test [1] was put at a Kd of 75 nM. This compound came in with an IC50 in test [2] of 170 nM.

`CC(C)Oc1ccc(S(N)(=O)=O)cc1Nc1nc(-c2ccc(C3=CCNCC3)nc2)cs1` [Example 72, 4-Isopropoxy-3-((4-(1′,2′,3′,6′-tetrahydro-[2,4′-bipyridin]-5-yl)thiazol-2-yl)amino)benzenesulfonamide.TFA] gave a Kd in test [1] of 110 nM. Also, in test [2], the IC50 amounted to 140 nM.

In test [1], `CC(C)Oc1ccc(S(N)(=O)=O)cc1Nc1nc(-c2ccc(N3CCNC(C(N)=O)C3)nc2)cs1` (stereo not drawn) [Example 73, 4-(5-(2-((2-Isopropoxy-5-sulfamoylphenyl)amino)thiazol-4-yl)pyridin-2-yl)piperazine-2-carboxamide.TFA] came in with a Kd of 120 nM. In test [2], this compound registered an IC50 of 210 nM.

`COCCN(C)c1ccc(-c2csc(Nc3cc(S(N)(=O)=O)ccc3OC(C)C)n2)cn1` [Example 74, 4-Isopropoxy-3-((4-(6-((2-methoxyethyl)(methyl)amino)pyridin-3-yl)thiazol-2-yl)amino)benzenesulfonamide.TFA]: the Kd in test [1] was found to be 170 nM. Moreover, 160 nM corresponded to half-maximal inhibition in test [2] (IC50).

In test [1], `CC(C)Oc1ccc(S(N)(=O)=O)cc1Nc1nc(-c2ccc(N(C)CCO)nc2)cs1` [Example 75, 3-((4-(6-((2-Hydroxyethyl)(methyl)amino)pyridin-3-yl)thiazol-2-yl)amino)-4-isopropoxybenzenesulfonamide.TFA] yielded a dissociation constant (Kd) of 280 nM. For the same compound, the IC50 in test [2] came to 110 nM.

The compound `CC(C)Oc1ccc(S(N)(=O)=O)cc1Nc1nc(-c2ccc(N3CCCCC3)nc2)cs1` [Example 76, 4-Isopropoxy-3-((4-(6-(piperidin-1-yl)pyridin-3-yl)thiazol-2-yl)amino)benzenesulfonamide.TFA] yielded a Kd in test [1] of 240 nM. For the same compound, the IC50 in test [2] is > 20000 nM.

Compound `CC1CCN(c2ccc(-c3csc(Nc4cc(S(N)(=O)=O)ccc4OC(C)C)n3)cn2)CC1` [Example 77, 4-Isopropoxy-3-((4-(6-(4-methylpiperidin-1-yl)pyridin-3-yl)thiazol-2-yl)amino)benzenesulfonamide.TFA] had a dissociation constant (Kd) in test [1] of 1900 nM. Besides, the half-inhibitory concentration (IC50) in test [2] is > 20000 nM.

As for `COC1CCN(c2ccc(-c3csc(Nc4cc(S(N)(=O)=O)ccc4OC(C)C)n3)cn2)CC1` [Example 78, 4-Isopropoxy-3-((4-(6-(4-methoxypiperidin-1-yl)pyridin-3-yl)thiazol-2-yl)amino)benzenesulfonamide.TFA], the equilibrium dissociation constant (Kd) in test [1] is 340 nM. Besides, the IC50 in test [2] was ~300 nM.

Take `CC(C)Oc1ccc(S(N)(=O)=O)cc1Nc1nc(-c2ccc(N3CCC(CO)CC3)nc2)cs1` [Example 79, 3-((4-(6-(4-(Hydroxymethyl)piperidin-1-yl)pyridin-3-yl)thiazol-2-yl)amino)-4-isopropoxybenzenesulfonamide.TFA]: the Kd in test [1] stood at 150 nM. The compound also yielded an IC50 in test [2] of 340 nM.

With `CC(C)Oc1ccc(S(N)(=O)=O)cc1Nc1nc(-c2ccc(N3CCNC(C(F)(F)F)C3)nc2)cs1` (stereo not drawn) [Example 80, 4-Isopropoxy-3-((4-(6-(3-(trifluoromethyl)piperazin-1-yl)pyridin-3-yl)thiazol-2-yl)amino)benzenesulfonamide.TFA], the equilibrium dissociation constant (Kd) in test [1] came out at 150 nM. For the same compound, the IC50 in test [2] came out at 360 nM.

With `CC(C)Oc1ccc(S(N)(=O)=O)cc1Nc1nc(-c2ccc(C3CCNCC3)nc2)cs1` [Example 81, 4-Isopropoxy-3-((4-(6-(piperidin-4-yl)pyridin-3-yl)thiazol-2-yl)amino)benzenesulfonamide.TFA], the Kd in test [1] was found to be 130 nM. Besides, the IC50 in test [2] came out at 130 nM.

`CC(C)Oc1ccc(S(N)(=O)=O)cc1Nc1nc(-c2ccc(C(=O)NCC3CCN(C)CC3)nc2)cs1` [Example 95, 5-(2-((2-Isopropoxy-5-sulfamoylphenyl)amino)thiazol-4-yl)-N-((1-methylpiperidin-4-yl)methyl)picolinamide.TFA] displayed an IC50 in test [2] of 310 nM. That is a sub-micromolar value.

Consider `CC(C)Oc1ccc(S(N)(=O)=O)cc1Nc1nc(-c2ccnc(Cl)c2)cs1` [Intermediate 9, 3-[4-(2-Chloro-pyridin-4-yl)-thiazol-2-ylamino]-4-isopropoxy-benzenesulfonamide.TFA], for which, in test [1], the Kd stood at 96000 nM.
